Results on 5 compounds are retold here after ChEMBL document CHEMBL3860073, “Thermodynamic properties of leukotriene A4 hydrolase inhibitors” (Bioorg Med Chem, 2016).

In general, ΔTm refers to the shift of the melting midpoint relative to a reference. The term Ki denotes the dissociation constant of the complex between target and ligand, obtained from inhibition or displacement. A higher Ki goes with weaker binding. As a reminder, the Kd is a measure of binding affinity in units of concentration. What is called IC50 is the concentration needed to halve the response being measured. Higher therefore signals weaker potency.

For test [1], the target named is T1, Leukotriene A-4 hydrolase (Homo sapiens) (UniProt P09960).
T1 sequence (whole entry): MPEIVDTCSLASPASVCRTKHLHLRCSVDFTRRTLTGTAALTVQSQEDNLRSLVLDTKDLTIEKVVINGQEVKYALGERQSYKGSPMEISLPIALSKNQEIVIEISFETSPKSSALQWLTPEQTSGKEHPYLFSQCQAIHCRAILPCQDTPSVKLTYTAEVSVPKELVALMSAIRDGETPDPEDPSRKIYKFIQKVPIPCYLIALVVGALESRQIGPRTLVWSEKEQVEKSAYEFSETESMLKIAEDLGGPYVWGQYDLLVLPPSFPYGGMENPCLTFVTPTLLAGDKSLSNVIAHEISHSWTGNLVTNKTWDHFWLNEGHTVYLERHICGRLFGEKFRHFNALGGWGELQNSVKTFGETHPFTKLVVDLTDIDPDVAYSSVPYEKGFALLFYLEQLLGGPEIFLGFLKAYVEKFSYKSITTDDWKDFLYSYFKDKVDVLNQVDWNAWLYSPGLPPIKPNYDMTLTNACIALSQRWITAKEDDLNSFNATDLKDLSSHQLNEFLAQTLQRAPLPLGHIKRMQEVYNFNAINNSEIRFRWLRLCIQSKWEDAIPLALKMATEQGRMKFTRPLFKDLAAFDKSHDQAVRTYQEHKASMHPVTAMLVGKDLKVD
Description: Binding affinity to human C-terminal His6-tagged/N-terminal T7 gene leader sequence-tagged LTA4H assessed as change in melting temperature at 1 mM by circular dichroism spectroscopic analysis

For test [2], the target named is T1, Leukotriene A-4 hydrolase (Homo sapiens). This is another data set of the same source.
Test [3] has as its target T2, Leukotriene A-4 hydrolase (Homo sapiens, UniProt P09960).
T2 sequence (P09960 whole entry): T1 sequence (whole entry)
Nature of the test: Competitive inhibition of human C-terminal his6-tagged/N-terminal T7 gene leader sequence-tagged LTA4H using varying levels of L-arginine-7-amino-4-Methylcoumarine as substrate preincubated for 30 mins followed by substrate addition measured for 30 mins by fluorescence assay.

The target of test [4] is T2, Leukotriene A-4 hydrolase. Nature of the test: Binding affinity to human C-terminal his6-tagged/N-terminal T7 gene leader sequence-tagged LTA4H at 15 degC by ITC method. In general terms: Isothermal titration calorimetry measures the heat released or taken up as one component is titrated into another.
In test [5] the target is T2, Leukotriene A-4 hydrolase. Nature of the test: Inhibition of human C-terminal his6-tagged/N-terminal T7 gene leader sequence-tagged LTA4H using L-arginine-7-amino-4-Methylcoumarine as substrate preincubated for 30 mins followed by substrate addition measured for 30 mins by fluorescence assay.
The target in test [6] is T2, Leukotriene A-4 hydrolase. Nature of the test: Binding affinity to human C-terminal his6-tagged/N-terminal T7 gene leader sequence-tagged LTA4H at 35 degC by ITC method.
The target of test [7] is T2, Leukotriene A-4 hydrolase. Nature of the test: Binding affinity to human C-terminal his6-tagged/N-terminal T7 gene leader sequence-tagged LTA4H at 25 degC by ITC method.
Test [8] concerns the target T1, Leukotriene A-4 hydrolase (Homo sapiens). Nature of the test: Binding affinity to human C-terminal His6-tagged/N-terminal T7 gene leader sequence-tagged LTA4H assessed as change in melting temperature at 0.5 mM by circular dichroism spectroscopic analysis.
The target is the same in test [9]. Particulars: 40 uM.

Regarding `C[C@H](CS)C(=O)N1CCC[C@H]1C(=O)O` [CAPTOPRIL], the ΔTm was 0.7 °C in test [1] and 1.5 °C in test [2]. In [3], the Ki came to 3700 nM. Besides, the Kd stood at 6370 nM in test [4], 8470 nM in test [6] and 6250 nM in [7]. In addition, in test [5], the IC50 was determined as 3600 nM.

As to `CN(C)CCOc1ccc(Oc2ccccc2)cc1`, the values for the ΔTm in test [8] and in [2] were 7.8 °C and 5 °C, respectively. In test [3], this compound displayed an inhibition constant (Ki) of 160 nM. Besides, the Kd in test [4] is 60 nM; in [6], 270 nM; in [7] it was 270 nM. The compound further gave an IC50 in test [5] of 60 nM.

Turning to `Nc1nc(-c2ccc(Cc3ccccc3)cc2)cs1`, the ΔTm in test [9] and in test [2] was 5.3 °C in each case. In test [3], this compound registered a Ki of 360 nM. Besides, the Kd worked out at 130 nM in test [4], 220 nM in [6] and 310 nM in [7]. Besides, in test [5], the IC50 was determined as 400 nM.

Take `CC(C)C[C@H](NC(=O)[C@@H](O)[C@H](N)Cc1ccccc1)C(=O)O`: the ΔTm in [1] turned out to be 5.2 °C; in test [2] it was 5.1 °C.

Regarding `CN(CCCOc1ccc(Cc2ccccc2)cc1)CCC(=O)O`, the results for the ΔTm in test [8] and in test [2] were 8.9 °C and 5.4 °C, respectively.
